From patent US4849425A, “Readily absorbable pharmaceutical composition” (Ishihara Sangyo Kaisha Ltd., priority 1985, dated 1989) come the findings set out here.

≈ marks a conversion by molar mass, not a printed value.

A short description of data set [1]: Solubility of Compound No. 3 in aqueous cyclodextrin solutions or polyethylene glycol 400 at 25° C. (Test Example 2). In kind it is physicochemical. On the procedure:
0.1 μmol of Compound No. 1 or No. 2 was added to 1 ml of an aqueous solution of each cyclodextrin with a concentration of from 0 to 8 mM, and the mixture was shaken at 25° C. for 100 hours. After completion of the shaking, the mixture was filtered through a millipore filter of 0.45 μm to obtain a filtrate.
Separation column: As the packing material, octadecylated silica gel was filled in a stainless steel tube having an internal diameter of from 0.39 to 4.6 mm and a length of from 100 to 300 mm.
Column temperature: 30° C.
Mobile phase: Mixture of acetonitrile-water (the mixing ratio was adjusted so that the eluting time of the drug becomes from 5 to 10 minutes).
Wave length for detection: 265 nm
7.5 mg of […]. was added to 1 ml of an aqueous solution of each cyclodextrin at various concentrations or to 1 ml of polyethylene glycol 400, and the solubility of Compound No. 3 at 25° C. was obtained in the same manner as the Test Example b 1.

Data set [2] is described as follows: Absorbability through the gut, oral, various dispersing solvents, plasma concentration in rats (Test Example 4). It counts as in vivo, Wistar male rats. Conditions: 20 mg/kg, rat. On the procedure:
20 mg of Compound No. […] 3. The suspension was orally administered by an oral sonde to a group of three Wistar male rats (body weight: 200-250g). The dose of Compound No. 3 was 20 mg/kg rat body weight. Further, Compound No. 3 was likewise suspended in an aqueous solution containing 0.5% of sodium salt of carboxymethyl cellulose, and the suspension was used as the control ( in FIG. 3). After the administration, the blood was periodically sampled, and the plasma was separated. After the removal of protein by acetonitrile, Compound No. 3 in the plasma was quantitatively analyzed by a high speed liquid chromatography as shown in Test Example 1.
The changes with time of the concentration of Compound No. 3 in the plasma after the oral administration were studied in the same manner as in Test Example 3 by using an aqueous solution of 10% (weight/volume) Polysolvate 80 (Tween 80, manufactured by Nakayai Kagaku K.K.), 10% (weight/volume) polyoxyethylene hardened caster oil 60 (manufactured by Nikko Chemical K.K.), 100% polyethylene glycol 400 or 50% (weight/volume) dimethyl β-type cyclodextrin, as the dispersing solvent for Compound No. 3, and an aqueous solution of 0.5% (weight/volume) sodium salt of carboxymethyl cellulose, as the control. […]

Data set [3] in a line: Oral capsules, plasma concentration in beagle dogs (Test Example 7). In kind it is in vivo. Conditions: for Concentration in the plasma: 0. How it is done:
The capsules prepared in Example 3 corresponding to 20 mg/kg of Compound No. 3 were orally administered to three beagle dogs (male: body weight: 5 kg). Then, the blood was periodically sampled from the branchium vein, and the concentration of Compound No. 3 in the plasma was measured. To the control group, a suspension of Compound No. 3 (20 mg/ml) in an aqueous solution containing 0.5% of sodium salt of carboxymethyl cellulose was administered. It is evident that the present invention, the absorbability of Compound No. 3 increased.

Setting [4] is: dog, plasma, po, 20 mg/kg, control, suspension in 0.5% sodium salt of carboxymethyl cellulose.
Where [5] appears, read: dog, plasma, po, 20 mg/kg, polyethylene glycol 400 capsules of Example 3, oral 20 mg/kg.

By solubility is commonly meant the dissolved amount per volume that the medium holds. `O=C(NC(=O)c1ccccc1[N+](=O)[O-])Nc1ccc(Oc2ncc(Br)cn2)c(Cl)c1` [Compound No. 3, N-(2-nitrobenzoyl)-N'-[4-(5-bromo-2-pyrimidinyloxy)-3-chlorophenyl]urea]: the solubility amounted to 0.294 µg/mL (≈ 0.597 µM) in data set [1] (aqueous dimethyl α-type cyclodextrin, dimethyl α-type cyclodextrin 17.5 mg/ml, aqueous); 24.1 µg/mL (≈ 48.9 µM) in data set [1] (aqueous dimethyl β-type cyclodextrin, dimethyl β-type cyclodextrin 20.0 mg/ml, aqueous); 5180 µg/mL (≈ 10500 µM) in data set [1] (aqueous dimethyl β-type cyclodextrin, dimethyl β-type cyclodextrin 140 mg/ml, aqueous); 7440 µg/mL (≈ 15100 µM) in data set [1] (aqueous dimethyl β-type cyclodextrin, dimethyl β-type cyclodextrin 500 mg/ml, aqueous); 0.024 µg/mL (≈ 0.0487 µM) in data set [1] (aqueous solution, no additives, aqueous solution containing no additives); 1 µg/mL (≈ 2.03 µM) in data set [1] (aqueous trimethyl β-type cyclodextrin, trimethyl β-type cyclodextrin 21.4 mg/ml, aqueous). The solubility in data set [1] (aqueous trimethyl β-type cyclodextrin, trimethyl β-type cyclodextrin 100 mg/ml, aqueous) is 13.4 µg/mL (≈ 27.2 µM); in data set [1] (aqueous trimethyl β-type cyclodextrin, trimethyl β-type cyclodextrin 200 mg/ml, aqueous), 30.4 µg/mL (≈ 61.7 µM); in data set [1] (aqueous α-type cyclodextrin 14.6 mg/ml, α-type cyclodextrin 14.6 mg/ml, aqueous) it was 0.164 µg/mL (≈ 0.333 µM); in data set [1] (aqueous β-type cyclodextrin 17.0 mg/ml, β-type cyclodextrin 17.0 mg/ml, aqueous), 1.64 µg/mL (≈ 3.33 µM); in data set [1] (polyethylene glycol 400, organic solvent or mixture, polyethylene glycol 400, 100%), 7500 µg/mL (≈ 15200 µM). The “concentration in the plasma as compared with the control” value in data set [2] (50% (w/v) dimethyl β-type cyclodextrin vs 0.5% sodium carboxymethyl cellulose) is reported as “about 7.5 times”; in data set [2] (100% polyethylene glycol 400 vs 0.5% sodium carboxymethyl cellulose), “about 5 times”. For the same molecule, the “Concentration in the plasma” value in data set [3] (control, suspension in 0.5% sodium salt of carboxymethyl cellulose, oral) amounted to 0 ng/mL; in data set [3] (polyethylene glycol 400 capsules of Example 3, oral 20 mg/kg) it was 0 ng/mL. Further, the values for the concentration at 1 h in data set [3] (setting [4]) and in data set [3] (setting [5]) were 70 ng/mL and 610 ng/mL, respectively. The concentration at 2 h in data set [3] (setting [4]) came to 100 ng/mL; in data set [3] (setting [5]) it was 1120 ng/mL. Further, the concentration at 4 h in data set [3] (dog, plasma, po, 20 mg/kg, polyethylene glycol 400 capsules of Example 3, oral 20 mg/kg, 4 hrs) stood at 1110 ng/mL. In addition, the absorbability entry in data set [3] (polyethylene glycol 400 capsules of Example 3, oral) is recorded as “increased”.
